Measurements as given in patent US20220143184A1, “MITOCHONDRION/RIBONUCLEIC ACID-TARGETED AND MIGRATABLE PHOTOSENSITIZED PROBE AND APPLICATION THEREOF” (SHENZHEN INSTITUTES OF ADVANCED TECHNOLOGY, priority 2019, published 2022).

How the values were obtained:
HeLa cells [1] = assay: Reactive oxygen species in HeLa cells before and after photodynamic therapy, DCFH-DA (Example 9); type: cell-based; conditions: 10 μM probe, 10 μM DCFH-DA, mercury lamp 510-560 nm, 3 min
Experimental: (§1) The glass-bottom cell culture dishes covered with HeLa cells prepared in Example 2 were washed three times with PBS, then incubated with 10 μM DCFH-DA in a CO2 incubator in darkness for 30 min. […] The stained cells were observed under a confocal laser scanning microscope, and the fluorescence distribution and intensity changes in the cells before and after the photodynamic therapy (irradiated with mercury lamp at 510-560 nm) were recorded.

HeLa cells [2] = assay: Dark toxicity to HeLa cells, MTT method (Example 16); type: cell-based; conditions: 0-20 μM
Experimental: The HeLa cells prepared in Example 2 were incubated in a 96-well plate with 1×10^4 cells per well. […] The cell viability was determined by the MTT method to determine the dark toxicity of the probe.

[3] = tested on: mitochondria of HeLa cells; assay: Colocalization with Mito-Tracker Green (MTG) in HeLa cells before and after photodynamic therapy (Example 10); type: cell-based; conditions: 10 μM probe, 1 μM MTG
Experimental: as §1, with “with a 1” for “with 10”, “μM MTG” for “μM DCFH-DA”, “and” for “and the”, “(irradiated by” for “(irradiated with”

[4] = Hydroxyl radical generation in aqueous solution, APF fluorescence (Example 8, Experiment 3); type: physicochemical; conditions: 10 μM APF, white light 300 mW/cm^2, 0-180 s
Experimental: (§2) Different reactive oxygen indicators were added to the photosensitized probe aqueous solution, and the fluorescence or absorption spectra were measured. Four experiments were conducted as follows:
10 μM APF was added to the aqueous solutions of PBS, 2 μM photosensitized probe, 2 μM photosensitized probe+0.8 mM RNA, 2 μM RB (a commercial singlet oxygen-generating photosensitizer). These solutions were irradiated for 0-180 s with the white light (300 mW/cm^2) of the xenon lamp, the fluorescence spectra at 500-700 nm were measured, and the fluorescence intensities at 514 nm were recorded to indicate the generation rate of hydroxyl radical.

Ribonucleic acid (RNA) = assay: Specific fluorescence recognition of biomolecules in solution (Example 13); type: binding; conditions: 2 μM probe
Experimental: After interaction for 5 min, the fluorescence spectra under excitation at 500 nm were measured, and the fluorescence intensities at 600 nm were recorded. Biomolecules include: Ribonucleic acid (RNA, 1.6 mM), deoxyribonucleic acid (DNA, 1.6 mM), amino acids (10 mM), hydrogen peroxide (10 mM), and metal ions (10 mM); in which, the amino acids include: Glutathione (GSH), homocysteine (Hcy), cysteine (Cys), glycine […], alanine (Ala), norvaline (Nor), glutamate (Glu), histidine (his), isoleucine (Iso), leucine (Leu), methionine (Met), phenylalanine (Phe), proline (Pro), serine (Ser), threonine (Thr), tryptophan (Try), and tyrosine (Tyr); and the metal ions include: Ca^2+, Fe^3+, Mg^2+, and Zn^2+.

ribonucleic acid [5] = assay: Recognition of ribonucleic acid and deoxyribonucleic acid in solution, absorption/fluorescence spectra (Example 5); type: binding; conditions: 10 μM probe
Experimental: A probe solution at concentration of 10 μM was mixed with a 120 μg/mL ribonucleic acid/deoxyribonucleic acid in PBS for 5 min, respectively, and then ultraviolet-visible absorption spectra and the fluorescence spectra under excitation at 488 nm were measured.

[6] = Singlet oxygen generation in aqueous solution, ABDA absorbance (Example 8, Experiment 2); type: physicochemical; conditions: for absorbance of ABDA at 378 nm with light irradiation: 50 μM ABDA, white light 300 mW/cm^2, 0-6 min
Experimental: as §2
50 μM ABDA was added to the aqueous solutions of PBS, 2 μM photosensitized probe, 2 μM photosensitized probe+0.8 mM RNA, and 2 μM RB (a commercial singlet oxygen-generating photosensitizer). These solutions were irradiated for 0-6 min with the white light (300 mW/cm^2) of the xenon lamp, absorption spectra at 300-600 nm were measured, and the absorbance values at 378 nm were recorded to indicate the generation rate of singlet oxygen.

ribonucleic acid [7] = assay: Binding mode with ribonucleic acid, circular dichroism spectra (Example 14); conditions: 10 μM in PBS, 5 min
Experimental: 10 μM (E)-4-(2-(5-methoxy-1H-indole-3-)vinyl)-1-methylquinolinium iodide was mixed with ribonucleic acid and deoxyribonucleic acid in PBS for 5 min, and the circular dichroism spectra were measured.

HeLa cells [8] = assay: Flow cytometry fluorescence intensity of HeLa cells before and after photodynamic therapy (Example 15); type: cell-based; conditions: 10 μM 30 min, xenon lamp white light 5 min
Experimental: Three groups of HeLa cells prepared in Example 2 were washed three times with PBS. […] The three groups of cells were digested in darkness and dispersed in PBS, and the number of cells and their fluorescence intensities are recorded and analyzed by flow cytometry was.

HeLa cells [9] = assay: Photodynamic therapy efficiency to HeLa cells, MTT method (Example 16); type: cell-based; conditions: 5-20 μM, 30 min in darkness, xenon lamp white light 5 min
HeLa cells [10] = assay: Cell morphology (DIC) of HeLa cells during photodynamic therapy (Example 12); type: cell-based; conditions: 10 μM probe, 510-560 nm, 3 min irradiation
Experimental: The resulting stained cells and a control group without the photosensitized probe incubation were observed under a fluorescence microscope, and differential interference contrast images of the cells during the photodynamic therapy (irradiated with mercury lamp at 510-560 nm) were recorded.

HeLa cells [11] = assay: Mitochondrial membrane potential of HeLa cells, JC-10 (Example 11); type: cell-based; conditions: 10 μM probe, mercury lamp 510-560 nm
Experimental: The cells were observed under a confocal laser scanning microscope, and the fluorescence distribution and intensity changes in the cells before and after photodynamic therapy (irradiated by mercury lamp at 510-560 nm) were recorded.

[12] = tested on: ribonucleic acid in the fixed cells; assay: DNase and RNase digestion experiments in fixed HeLa cells (Example 4); type: cell-based; conditions: 50 μg/mL RNase 2 h, 10 μM probe 30 min
Experimental: Preparation of fixed cells: firstly, the cover glasses (slides) covered with HeLa cells prepared in Example 2 were soaked in a 4% paraformaldehyde solution for 30 min, and then permeated with a 0.5% Triton X-100 at room temperature for 2 min to prepare fixed cells for staining.
Three groups of the above fixed cells were taken, in which, two groups were added with a 2 U/mL RNase-free DNase and a 50 μg/mL DNase-free RNase for digestion in the incubator for 2 h individually.
The stained slides were observed under a wide-field fluorescence microscope to record the stained regions, fluorescence distribution, and intensity changes in the cells.

[13] = Oxygenous radicals by electron spin resonance with DMPO (Example 8, Experiment 4); type: physicochemical; conditions: white light 300 mW/cm^2, 5 min
Experimental: as §2
DMPO was added to the aqueous solutions of RNA, 2 μM photosensitized probe of the application, 2 μM photosensitized probe+0.8 mM RNA. These solutions were irradiated for 5 min by the white light (300 mW/cm^2) of the xenon lamp. The electron spin resonance spectra before and after irradiation were measured, and the signal intensities indicate the amount of hydroxyl radicals.

[14] = Generation rate of all types of reactive oxygen species in aqueous solution, DCFH (Example 8, Experiment 1); type: physicochemical; conditions: 2 μM probe + 0.8 mM RNA, white light 300 mW/cm^2, 0-180 s
Experimental: as §2
10 μM 2′,7′-dichlorodihydrofluorescein (DCFH) was added to aqueous solutions of PBS, 2 μM photosensitized probe, 2 μM photosensitized probe of the application+0.8 mM RNA, and 2 μM Rose Bengal B (RB). These solutions were irradiated for 0-180 s with white light (300 mW/cm^2) of a xenon lamp with ultraviolet light filtered out, fluorescence spectra at 500-700 nm were measured under 488 nm excitation, and the fluorescence intensities at 529 nm were recorded to indicate the generation rate of all types of reactive oxygen species.

[15] = tested on: 4T1 cell subcutaneous tumor
Experimental: The 4T1 cells were cultured adherently in a culture medium containing a 10% fetal bovine serum, in a saturated humidity incubator with 5% CO2 at 37° C., and subcultured every 2-3 days. After the cells have grown to the logarithmic phase, the cells were subcutaneously inoculated into the right hind leg of a nude mouse: Specifically, the overgrown cells in the T25 cell culture flask were washed with 1 mL 0.25% trypsin, and then digested with another 1 mL 0.25% trypsin for 1 to 2 min. After adding the fresh medium, the cells were evenly pipetted, counted, centrifuged and washed with PBS three times, the cell density was controlled with the added amount of PBS to make a final concentration of cells to be 1×107 per milliliter. After that the cells were inoculated subcutaneously into the right hind leg of nude mice, each with approximately 1.2×10^6 cells. After the tumors grow for approximately a week, the mice were used for tumor photodynamic therapy and in vivo fluorescence imaging experiments.
The nude mouse tumor models prepared in Example 7 were divided into three groups for intratumor injection of drugs, with a dosage of 50 μL (1 mM) per tumor volume 100 mm^3.
After the photodynamic therapy, the tumor tissues are sectioned and stained with TUNEL and HE, and the results are shown in FIG. 19.

HeLa cells [16] = assay: Fluorescence imaging of live HeLa cells stained with the probe, before and after light irradiation (Example 3); type: cell-based; conditions: 10 μM
Experimental: The following three groups of experiments were performed: (1) The cells were stained in darkness for 30 min, and then irradiated by a white light of the mercury lamp for 5 min; (2) The cells were stained in darkness for 30 min, without light irradiation. (1) The cells were stained in darkness for 10 min. (2) The cells were stained in darkness for 30 min. (3) The cells were stained in darkness for 60 min. (4) The cells were stained in darkness for 120 min. (1) The cells were stained for 30 min, and then irradiated by light at 510-560 nm for 10 seconds. (2) The cells were stained for 30 min, and then irradiated by light at 510-560 nm for 1 minute. (3) The cells were stained for 30 min, and then irradiated by light at 510-560 nm for 2 min. (4) The cells were stained for 30 min, and then irradiated by light at 510-560 nm for 3 min. (5) The cells were stained for 30 min, and then irradiated by light at 510-560 nm for 4 min. (6) The cells were stained for 30 min, and then irradiated by light at 510-560 nm for 5 min. The stained cells were observed under a fluorescence microscope and a confocal laser scanning microscope and the stained regions, fluorescence distributions, and intensity changes in cells were recorded.

[17] = 120 μg/mL RNA in PBS, 5 min, excitation 488 nm

COc1ccc2[nH]cc(/C=C/c3cc[n+](C)c4ccccc34)c2c1.[I-] [photosensitized probe 1, (E)-4-(2-(5-methoxy-1H-indole-3-)vinyl)-1-methylquinolinium iodide]
intensity of green fluorescence of DCFH-DA (reactive oxygen species level in the cells) after irradiation (HeLa cells [1]): increases remarkably
dark toxicity (HeLa cells [2]; 24 h): very low and negligible
cell viability in darkness (HeLa cells [2]; incubation 24 h, darkness): ~100%
location of the probe before photodynamic therapy ([3]; darkness): located in the mitochondria
location of the probe after photodynamic therapy ([3]; mercury lamp 510-560 nm): migration of the photosensitized probe to the cytoplasm and nucleolus regions
hydroxyl radicals generation (APF fluorescence at 514 nm) ([4]; 2 μM probe + 0.8 mM RNA): more hydroxyl radicals are generated
hydroxyl radicals generation (APF fluorescence at 514 nm) ([4]; 2 μM probe alone): can effectively generate hydroxyl radicals
increase of fluorescence intensity after binding with ribonucleic acid compared with the probe itself (Ribonucleic acid (RNA); RNA 1.6 mM in PBS, 5 min, excitation 500 nm, emission 600 nm): more than 100 times
fluorescence with RNA compared with deoxyribonucleic acid (Ribonucleic acid (RNA); RNA 1.6 mM, DNA 1.6 mM): significantly stronger than that of the probe after binding with deoxyribonucleic acid
fluorescence response to other biomolecules (Ribonucleic acid (RNA); amino acids, hydrogen peroxide, metal ions 10 mM): no obvious fluorescence response
fluorescence emission peak after interacting with ribonucleic acid (ribonucleic acid [5]; [17]): around 600 nm
increase of fluorescence intensity in RNA solution compared with the probe itself (ribonucleic acid [5]; [17]): approximately 40 times
fluorescence with RNA compared with deoxyribonucleic acid (ribonucleic acid [5]; 120 μg/mL RNA or DNA in PBS): significantly stronger than the fluorescence after binding with deoxyribonucleic acid
absorbance of ABDA at 378 nm with light irradiation ([6]; 2 μM probe + 0.8 mM RNA): slight decrease
singlet oxygen generation compared with RB ([6]; 2 μM, white light 300 mW/cm^2): generates less singlet oxygen
absorbance of ABDA at 378 nm with light irradiation ([6]; 2 μM, without RNA): slight decrease
binding mode with ribonucleic acid (ribonucleic acid [7]): minor groove binding
circular dichroism spectrum after being mixed with DNA (ribonucleic acid [7]): no obvious change
circular dichroism spectrum after being mixed with RNA (ribonucleic acid [7]): negative Cotton effect
fluorescence intensity of the cells after photodynamic therapy versus group without photodynamic therapy (HeLa cells [8]): enhanced significantly
cell viability after photodynamic therapy (HeLa cells [9]): greatly reduced
cell morphology after light irradiation (symbol of cell apoptosis) (HeLa cells [10]): many vesicles form near cell membrane
mitochondria membrane potential after photodynamic therapy (JC-10 aggregates fluorescence) (HeLa cells [11]): significantly reduced
fluorescence of the cells treated with RNase versus control group [12]: much weaker than that of the control group
oxygenous radicals generation (ESR) ([13]; 2 μM probe + 0.8 mM RNA): more oxygenous radicals can be generated
oxygenous radicals generation (ESR) ([13]; 2 μM probe alone): can effectively generate oxygenous radicals
rate of reactive oxygen species production (DCFH fluorescence at 529 nm) versus probe alone and RB [14]: significantly higher
tumor growth (tumor volume) ([15]; 1+Light, within 16 days of therapy): significantly inhibited
fluorescence intensity of the tumor site with the progress of the photodynamic therapy ([15]; intratumor injection 50 μL (1 mM) per 100 mm^3, 0-10 min during and 10-60 min after therapy): increases significantly
fluorescence at the tumor site after the photodynamic therapy ([15]; probe with light irradiation): bright fluorescence at the tumor site
TUNEL staining of tumor tissue section ([15]; probe with photodynamic therapy): died in the apoptosis pathway
HE staining of tumor tissue section ([15]; probe with photodynamic therapy (third group)): seriously damaged
fluorescence at the tumor site without the photodynamic therapy ([15]; probe, fed in darkness): weak fluorescence at the tumor site
fluorescence of live cells stained in darkness with increasing incubation time (HeLa cells [16]; darkness 10-120 min): relatively weak red fluorescence only in the cytoplasm regions
fluorescence with increasing light irradiation time (HeLa cells [16]; stained 30 min, 510-560 nm green light 10 s-5 min): the fluorescence gradually increases
fluorescence of live cells after light irradiation (HeLa cells [16]; stained 30 min, mercury lamp white light 5 min, 488 nm excitation): strong red fluorescence in the cytoplasm and nucleolus region
fluorescence of live cells without light irradiation (HeLa cells [16]; stained in darkness 30 min, 488 nm excitation, confocal): weak red fluorescence only in the cytoplasm region

O=C1OC2(c3cc(I)c(O)c(I)c3Oc3c2cc(I)c(O)c3I)c2c(Cl)c(Cl)c(Cl)c(Cl)c21 [RB, Rose Bengal B, reference compound]
absorbance of ABDA at 378 nm with light irradiation ([6]; 2 μM, without RNA): decreases much faster
